Values of other authors, collected in patent US5876715A, “Antibodies that bind novel carbohydrate ligands (myelorollins) that cause E-selectin dependent cell rolling, and uses thereof” (The Biomembrane Institute, priority 1996, dated 1999).

What was measured:
[1] = rat, IgG immune complex lung injury; Mulligan et al. 1993; cited from earlier work
[2] = system: E-selectin expressing CHO cells; conditions: shear stress of 0.78 dyne/cm^2; J. Immunol. 154:5356-5366 (1995); cited from earlier work

Substance: IV^3 NeuAcIII^3 FucnLc4 Cer [SLe^x]
- effect against inflammatory vascular injury [1]: provides protective effects against inflammatory vascular injury
- tethering of E-selectin expressing CHO cells [2]: tethered
